These molecules were tested against T1, PDE2 (Bos taurus, UniProt P14099) (assay: Radioenzymatic phosphodiesterase assay: PDE2 inhibition). Settings: Table 1; 10 μM test compound; read-out: PDE2 percentage of inhibition at 10 μM.
T1 sequence (P14099 1-921): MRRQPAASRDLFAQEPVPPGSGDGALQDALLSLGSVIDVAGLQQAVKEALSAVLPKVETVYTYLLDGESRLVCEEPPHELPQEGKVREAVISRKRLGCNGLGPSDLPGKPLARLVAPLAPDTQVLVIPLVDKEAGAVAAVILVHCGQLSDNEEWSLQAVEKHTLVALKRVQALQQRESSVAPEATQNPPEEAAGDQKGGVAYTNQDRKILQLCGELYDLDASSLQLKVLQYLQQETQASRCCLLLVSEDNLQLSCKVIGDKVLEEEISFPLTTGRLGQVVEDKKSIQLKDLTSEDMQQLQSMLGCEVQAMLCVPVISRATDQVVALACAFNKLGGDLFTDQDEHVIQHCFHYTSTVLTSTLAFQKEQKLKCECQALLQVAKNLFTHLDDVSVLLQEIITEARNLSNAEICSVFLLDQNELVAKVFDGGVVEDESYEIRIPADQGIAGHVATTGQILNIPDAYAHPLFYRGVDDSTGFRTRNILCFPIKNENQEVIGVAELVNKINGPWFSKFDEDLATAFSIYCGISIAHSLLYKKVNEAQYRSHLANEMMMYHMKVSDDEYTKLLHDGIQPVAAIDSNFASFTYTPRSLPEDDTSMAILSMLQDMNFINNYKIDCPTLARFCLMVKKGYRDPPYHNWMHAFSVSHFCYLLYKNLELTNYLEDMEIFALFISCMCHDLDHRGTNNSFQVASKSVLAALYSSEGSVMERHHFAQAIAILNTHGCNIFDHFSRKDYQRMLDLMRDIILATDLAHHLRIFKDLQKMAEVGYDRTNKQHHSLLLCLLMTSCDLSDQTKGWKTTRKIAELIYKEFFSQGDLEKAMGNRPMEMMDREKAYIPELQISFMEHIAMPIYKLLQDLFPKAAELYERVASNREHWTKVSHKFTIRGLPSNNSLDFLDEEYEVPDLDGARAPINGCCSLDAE
Assay type: biochemical, bovine
Protocol: Nucleoside radioactivity was determined by liquid scintillation.
`COc1ccccc1-c1cc2c(cc1OC)N(CCc1ccccc1)C(=O)CN=C2c1cccc(C#N)c1` [Example 38, 3-[8-Methoxy-7-(2-methoxy-phenyl)-2-oxo-1-phenethyl-2,3-dihydro-1H-benzo[e][1,4]diazepin-5-yl]-benzonitrile] showed an inhibition at 10 µM of 86%.
For `CN1C(=O)CN=C(c2cccc(Cl)c2)c2cc(-c3ccccc3)ccc21` [Example 40, 5-(3-Chloro-phenyl)-1-methyl-7-phenyl-1,3-dihydro-benzo[e][1,4]diazepin-2-one], the inhibition at 10 µM was 68%.
`CN1C(=O)CN=C(c2ccccc2Cl)c2cc(-c3ccccc3)ccc21` [Example 41, 5-(2-Chloro-phenyl)-1-methyl-7-phenyl-1,3-dihydro-benzo[e][1,4]diazepin-2-one] showed an inhibition at 10 µM of 34%.
Work on `CN1C(=O)CN=C(c2ccc(Cl)cc2)c2cc(-c3ccccc3)ccc21` [Example 42, 5-(4-Chloro-phenyl)-1-methyl-7-phenyl-1,3-dihydro-benzo[e][1,4]diazepin-2-one] yielded an inhibition at 10 µM of 1%.
`COc1ccccc1C1=NCC(=O)N(C)c2ccc(-c3ccccc3)cc21` [Example 51, 5-(2-Methoxy-phenyl)-1-methyl-7-phenyl-1,3-dihydro-benzo[e][1,4]diazepin-2-one] was tested, and the inhibition at 10 µM was 28%.
With `CN1C(=O)CN=C(c2cccc(C#N)c2)c2cc(-c3ccco3)ccc21` [Example 52, 3-[7-(Furan-2-yl)-1-methyl-2-oxo-2,3-dihydro-1H-benzo[e][1,4]diazepin-5-yl]-benzonitrile] the inhibition at 10 µM was 78%.
`CN1C(=O)CN=C(c2cc(Cl)cc(Cl)c2)c2cc(-c3ccccc3)ccc21` [Example 55, 5-(3,5-Dichloro-phenyl)-1-methyl-7-phenyl-1,3-dihydro-benzo[e][1,4]diazepin-2-one] showed an inhibition at 10 µM of 53%.
In the case of `CN1C(=O)CN=C(c2ccc(Cl)c(Cl)c2)c2cc(-c3ccccc3)ccc21` [Example 56, 5-(3,4-Dichloro-phenyl)-1-methyl-7-phenyl-1,3-dihydro-benzo[e][1,4]diazepin-2-one], the inhibition at 10 µM is reported as 70%.
In the case of `CN1C(=O)CN=C(c2ccc(F)cc2)c2cc(-c3ccccc3)ccc21` [Example 57, 5-(4-Fluoro-phenyl)-1-methyl-7-phenyl-1,3-dihydro-benzo[e][1,4]diazepin-2-one], the inhibition at 10 µM is reported as 74%.
Molecule `CC(=O)c1cccc(C2=NCC(=O)N(C)c3ccc(-c4ccccc4)cc32)c1` [Example 58, 5-(3-Acetyl-phenyl)-1-methyl-7-phenyl-1,3-dihydro-benzo[e][1,4]diazepin-2-one] has an inhibition at 10 µM of 91%.
`CN1C(=O)CN=C(c2cccc(C(F)(F)F)c2)c2cc(-c3ccccc3)ccc21` [Example 59, 1-Methyl-7-phenyl-5-(3-trifluoromethyl-phenyl)-1,3-dihydro-benzo[e][1,4]diazepin-2-one] gave an inhibition at 10 µM of 43%.
For `Cc1ccc(C2=NCC(=O)N(C)c3ccc(-c4ccccc4)cc32)cc1[N+](=O)[O-]` [Example 60, 1-Methyl-5-(4-methyl-3-nitro-phenyl)-7-phenyl-1,3-dihydro-benzo[e][1,4]diazepin-2-one], the inhibition at 10 µM was 88%.
`CN1C(=O)CN=C(c2ccc(OC(F)(F)F)cc2)c2cc(-c3ccccc3)ccc21` [Example 61, 1-Methyl-7-phenyl-5-(4-trifluoromethoxy-phenyl)-1,3-dihydro-benzo[e][1,4]diazepin-2-one] was tested, and the inhibition at 10 µM was 31%.
`COc1cc2c(cc1-c1ccccc1)C(c1cccc(Br)c1)=NCC(=O)N2C` [Example 62, 5-(3-Bromo-phenyl)-8-methoxy-1-methyl-7-phenyl-1,3-dihydro-benzo[e][1,4]diazepin-2-one] gave an inhibition at 10 µM of 98%.
With `COc1ccc(C2=NCC(=O)N(C)c3ccc(-c4ccccc4)cc32)cc1OC` [Example 64, 5-(3,4-Dimethoxy-phenyl)-1-methyl-7-phenyl-1,3-dihydro-benzo[e][1,4]diazepin-2-one] the inhibition at 10 µM was 79%.
With `CN1C(=O)CN=C(c2cccc([N+](=O)[O-])c2)c2cc(-c3ccccc3)ccc21` [Example 65, 1-Methyl-5-(3-nitro-phenyl)-7-phenyl-1,3-dihydro-benzo[e][1,4]diazepin-2-one] the inhibition at 10 µM was 78%.
`CN1C(=O)CN=C(c2cccc(N)c2)c2cc(-c3ccccc3)ccc21` [Example 68, 5-(3-Amino-phenyl)-1-methyl-7-phenyl-1,3-dihydro-benzo[e][1,4]diazepin-2-one] showed an inhibition at 10 µM of 52%.

Same assay, conditions: read-out: PDE2 percentage of inhibition at 10 μM
`COc1ccccc1-c1cc2c(cc1OC)N(Cc1ccccc1)C(=O)CN=C2c1cccc(C#N)c1` [Example 39, 3-[1-Benzyl-8-methoxy-7-(2-methoxy-phenyl)-2-oxo-2,3-dihydro-1H-benzo[e][1,4]diazepin-5-yl]-benzonitrile] gave an inhibition at 10 µM of 72%.
Work on `COc1cc2c(cc1-c1ccc(C#N)cc1)C(c1cccc(C#N)c1)=NCC(=O)N2C` [Example 43, 3-(8-Methoxy-1-methyl-2-oxo-7-(4-cyanophenyl)-2,3-dihydro-1H-benzo[e][1,4]diazepin-5-yl)-benzonitrile] yielded an inhibition at 10 µM of 92%.
For `COc1ccccc1-c1cc2c(cc1OC)N(Cc1ccccc1)C(=O)CN=C2c1cccc(C(N)=O)c1` [Example 44, 3-[1-Benzyl-8-methoxy-7-(2-methoxy-phenyl)-2-oxo-2,3-dihydro-1H-benzo[e][1,4]diazepin-5-yl]-benzamide], the inhibition at 10 µM was 88%.
In the case of `CCCN1C(=O)CN=C(c2cccc(C(N)=O)c2)c2cc(-c3ccccc3OC)c(OC)cc21` [Example 45, 3-[8-Methoxy-7-(2-methoxy-phenyl)-2-oxo-1-propyl-2,3-dihydro-1H-benzo[e][1,4]diazepin-5-yl]-benzamide], the inhibition at 10 µM is reported as 48%.
Molecule `COc1ccccc1-c1cc2c(cc1OC)N(CCc1ccccc1)C(=O)CN=C2c1cccc(C(N)=O)c1` [Example 46, 3-[8-Methoxy-7-(2-methoxy-phenyl)-2-oxo-1-phenethyl-2,3-dihydro-1H-benzo[e][1,4]diazepin-5-yl]-benzamide] has an inhibition at 10 µM of 78%.
Work on `CCCCCCN1C(=O)CN=C(c2cccc(C(N)=O)c2)c2cc(-c3ccccc3OC)c(OC)cc21` [Example 47, 3-[1-Hexyl-8-methoxy-7-(2-methoxy-phenyl)-2-oxo-2,3-dihydro-1H-benzo[e][1,4]diazepin-5-yl]-benzamide] yielded an inhibition at 10 µM of 59%.
`COc1cc2c(cc1-c1ccc(C(C)=O)cc1)C(c1cccc(C#N)c1)=NCC(=O)N2C` [Example 48, 3-[7-(4-Acetylphenyl)-8-methoxy-1-methyl-2-oxo-2,3-dihydro-1H-benzo[e][1,4]diazepin-5-yl]-benzonitrile] showed an inhibition at 10 µM of 97%.
Work on `COc1cc2c(cc1-c1ccc(C(C)=O)cc1)C(c1cccc(C(N)=O)c1)=NCC(=O)N2C` [Example 49, 3-[7-(4-Acetylphenyl)-8-methoxy-1-methyl-2-oxo-2,3-dihydro-1H-benzo[e][1,4]diazepin-5-yl]-benzamide] yielded an inhibition at 10 µM of 99%.
Molecule `COc1ccc(C2=NCC(=O)N(C)c3ccc(-c4ccccc4)cc32)cc1` [Example 50, 5-(4-Methoxy-phenyl)-1-methyl-7-phenyl-1,3-dihydro-benzo[e][1,4]diazepin-2-one] has an inhibition at 10 µM of 95%.
Work on `COc1ccc(-c2ccc3c(c2)C(c2cccc(C#N)c2)=NCC(=O)N3C)cc1OC` [Example 53, 3-[7-(3,4-Dimethoxy-phenyl)-1-methyl-2-oxo-2,3-dihydro-1H-benzo[e][1,4]diazepin-5-yl]-benzonitrile] yielded an inhibition at 10 µM of 95%.
`COc1ccc(-c2ccc3c(c2)C(c2cccc(C(N)=O)c2)=NCC(=O)N3C)cc1OC` [Example 54, 3-[7-(3,4-Dimethoxy-phenyl)-1-methyl-2-oxo-2,3-dihydro-1H-benzo[e][1,4]diazepin-5-yl]-benzamide] showed an inhibition at 10 µM of 94%.
For `COc1cc2c(cc1-c1ccccc1OC(C)C)C(c1cccc(C#N)c1)=NCC(=O)N2C` [Example 63, 3-[7-(2-isopropoxy-phenyl)-8-methoxy-1-methyl-2-oxo-2,3-dihydro-1H-benzo[e][1,4]diazepin-5-yl]-benzonitrile], the inhibition at 10 µM was 98%.
`CCCCC#Cc1cccc(C2=NCC(=O)N(C)c3cc(OC)c(-c4ccccc4)cc32)c1` [Example 66, 5-(3-Hex-1-ynyl-phenyl)-8-methoxy-1-methyl-7-phenyl-1,3-dihydro-benzo[e][1,4]diazepin-2-one] showed an inhibition at 10 µM of 86%.
`COc1cc2c(cc1-c1ccccc1)C(c1cccc(C#CCNC(=O)OC(C)(C)C)c1)=NCC(=O)N2C` [Example 67, {3-[3-(8-Methoxy-1-methyl-2-oxo-7-phenyl-2,3-dihydro-1H-benzo[e][1,4]diazepin-5-yl)-phenyl]-prop-2-ynyl}-carbamic acid tert-butyl ester] gave an inhibition at 10 µM of 60%.
Work on `CN1C(=O)CN=C(c2cccc(C#N)c2)c2cc(-c3ccccc3)c(Oc3ccccc3)cc21` [Example 69, 3-(1-Methyl-2-oxo-8-phenoxy-7-phenyl-2,3-dihydro-1H-benzo[e][1,4]diazepin-5-yl)-benzonitrile] yielded an inhibition at 10 µM of 4%.

Reference: US7410963B2, “Benzo-1,4-diazepin-2-one derivatives as phosphodiesterase PDE2 inhibitors, preparation and therapeutic use thereof” (VIA Pharmaceuticals, Inc., priority 2003, dated 2008)
